Counter-ions that a name gives are not always drawn.
What was measured:
[1] = rats; in comparison to tenofovir alafenamide hemifumarate; CN 105237571 B; cited from earlier work
[2] = CDER review, NDA 207561; cited from earlier work
[3] = Wood apparatus, bath 37° C., 900 mL distilled water, 50 rpm, compressed 200-400 mg samples
Protocol: Intrinsic dissolution rate (IDR) measurements were performed using a Wood apparatus (Pharma Test PT-DT8 instrument) having a bath temperature of 37° C. Samples were prepared by compressing 200-400 mg samples at 1.5 metric tons for 1 minute. A dissolution medium consisting of 900 mL distilled water, and rotation speed of 50 rpm, was used for each experiment.

[4] = reported; cited from earlier work

Compound: tenofovir alafenamide hemisuccinate
- absorption (AUC) [1]: higher
- maximum plasma concentration (Cmax) [1]: higher

Compound: tenofovir alafenamide hemifumarate
- Biopharmaceutics Classification System (BCS) class [2]: Class III
- solubility [2]: high

Compound: Tenofovir alafenamide succinate [Tenofovir alafenamide succinate (1:1)]
- Intrinsic Dissolution Rate [3]: 0.67 mg min^−1 cm^−2

Compound: CC(C)OC(=O)[C@H](C)N[P@](=O)(CO[C@H](C)Cn1cnc2c(N)ncnc21)Oc1ccccc1 [tenofovir alafenamide, L-alanine, N—[(S)-[[(1 R)-2-(6-amino-9H-purin-9-yl)-1-methylethoxy]methyl]phenoxyphosphinyl]-, 1-methylethyl ester]
- bioavailability [4]: low

Compound: CC(C)OC(=O)[C@H](C)N[P@](=O)(CO[C@H](C)Cn1cnc2c(N)ncnc21)Oc1ccccc1 [Tenofovir alafenamide fumarate (1:1), Tenofovir alafenamide fumarate]
- Intrinsic Dissolution Rate [3]: 0.87 mg min^−1 cm^−2
